Values of other authors, collected in patent publication US20040067252A1, “Novel modified release formulation” (priority 2001, published 2004).
≈ marks a conversion by molar mass, not a printed value.

Details: at 25° C.

For `Cn1c(=O)c2[nH]cnc2n(C)c1=O` [theophylline], the water solubility is given as 8300 µg/mL (≈ 46.1 mM).
